According to ChEMBL document CHEMBL4699511, “Cedrol, a Sesquiterpene Alcohol, Enhances the Anticancer Efficacy of Temozolomide in Attenuating Drug Resistance via Regulation of the DNA Damage Response and MGMT Expression” (J Nat Prod, 2020):
Activity calls are given as the source filed them. The calls are words filed in the database; no cut-off is given here.

Tests used:
[1] = Effect of MDR1 expression in human DBTRG-05MG cells at 112.4 uM after 48 hrs by Western blot analysis; type: functional
[2] = Inhibition of TMZ-induced drug resistance in rat RG2 cells assessed as MDR1 expression at 112.4 uM after 48 hrs by Western blot analysis (reference value: 5.3); type: functional
DBTRG-05MG [3] = test: Induction of cell cycle arrest in human DBTRG-05MG cells assessed as accumulation at G2/M phase at 112.4 uM after 6 hrs in presence of TMZ by propidium iodide staining based flow cytometric analysis (reference value: 30.08 +/- 0.1%); type: functional
DBTRG-05MG [4] = test: Induction of apoptosis in human DBTRG-05MG cells assessed as increase in apoptotic body formation at 112.4 uM after 48 hrs by TUNEL assay; type: functional, cell-based
RG2 [5] = test: Synergistic cytotoxicity against rat RG2 cells assessed as combination index at 134.9 uM after 48 hrs in presence of 412.1 uM TMZ by MTT assay; type: functional
[6] = Synergistic cytotoxicity against rat CTX TNA2 cells assessed as synergistic effect index at 134.9 uM after 48 hrs in presence of 412.1 uM TMZ by MTT assay; type: cell-based; settings: ctx tna2, 48 h
DBTRG-05MG [7] = test: Synergistic cytotoxicity against human DBTRG-05MG cells assessed as synergistic effect index at 112.4 uM after 48 hrs in presence of 309 uM TMZ by MTT assay; type: functional
RG2 [8] = test: Synergistic cytotoxicity against rat RG2 cells assessed as synergistic effect index at 112.4 uM after 48 hrs in presence of 103 uM TMZ by MTT assay; type: functional
[9] = Effect on p38 expression in human DBTRG-05MG cells at 112.4uM after 48 hrs in presence of TMZ by Western blot analysis (reference value: 1); type: functional
RG2 [10] = test: Synergistic cytotoxicity against rat RG2 cells assessed as synergistic effect index at 112.4 uM after 48 hrs in presence of 412.1 uM TMZ by MTT assay; type: functional
DBTRG-05MG [11] = test: Induction of apoptosis in human DBTRG-05MG cells assessed as increase in DNA fragmentation at 112.4 uM after 48 hrs in presence of TMZ by TUNEL assay; type: functional, cell-based
[12] = Synergistic cytotoxicity against rat CTX TNA2 cells assessed as synergistic effect index at 134.9 uM after 48 hrs in presence of 515.1 uM TMZ by MTT assay; type: cell-based; settings: ctx tna2, 48 h
DBTRG-05MG [13] = test: Induction of cell cycle arrest in human DBTRG-05MG cells assessed as CDK2 expression at 112.4uM after 48 hrs by Western blot analysis (reference value: 1); type: functional
[14] = Synergistic cytotoxicity against rat CTX TNA2 cells assessed as synergistic effect index at 89.9 uM after 48 hrs in presence of 412.1 uM TMZ by MTT assay; type: cell-based; settings: ctx tna2, 48 h
RG2 [15] = test: Inhibition of AKT phosphorylation at S473 residues in rat RG2 cells at 112.4uM after 48 hrs in presence of TMZ by Western blot analysis; type: cell-based
[16] = Inhibition of TMZ-induced drug resistance in human DBTRG-05MG cells assessed as CD133 expression at 112.4 uM after 48 hrs by Western blot analysis (reference value: 2.3); type: functional
RG2 [17] = test: Induction of cell cycle arrest in rat RG2 cells assessed as accumulation at S phase at 112.4 uM after 6 hrs by propidium iodide staining based flow cytometric analysis (reference value: 20.15 +/- 2.44%); type: functional
DBTRG-05MG [18] = test: Induction of apoptosis in human DBTRG-05MG cells assessed as phosphorylated PARP expression at 112.4 uM after 48 hrs in presence of TMZ by Western blot analysis (reference value: 1); type: functional
RG2 [19] = test: Induction of cell cycle arrest in rat RG2 cells assessed as accumulation at S phase at 112.4 uM after 24 hrs by propidium iodide staining based flow cytometric analysis (reference value: 20.15 +/- 2.44%); type: functional
DBTRG-05MG [20] = test: Synergistic cytotoxicity against human DBTRG-05MG cells assessed as combination index at 112.4 uM after 48 hrs in presence of 515.1 uM TMZ by MTT assay; type: functional
[21] = Toxicity in BALB/c mouse xenografted with DBTRG-05MG cells assessed as inflammatory cell infiltration score in liver at 75 mg/kg, sc co-treated with TMZ for 18 days by H and E staining-based bright field microscopic analysis; type: organism-based; settings: in vivo, 432 h, time 18 day
DBTRG-05MG [22] = test: Induction of cell cycle arrest in human DBTRG-05MG cells assessed as accumulation at G0/G1 phase at 112.4 uM after 12 hrs in presence of TMZ by propidium iodide staining based flow cytometric analysis (reference value: 47.16 +/- 1.55%); type: functional
RG2 [23] = test: Induction of cell cycle arrest in rat RG2 cells assessed as accumulation at G2/M phase at 112.4 uM after 48 hrs in presence of TMZ by propidium iodide staining based flow cytometric analysis (reference value: 20.04 +/- 0.55%); type: functional
RG2 [24] = test: Induction of apoptosis in rat RG2 cells assessed as phosphorylated PARP expression at 112.4 uM after 48 hrs in presence of TMZ by Western blot analysis (reference value: 1); type: functional
RG2 [25] = test: Synergistic cytotoxicity against rat RG2 cells assessed as synergistic effect index at 89.9 uM after 48 hrs in presence of 103 uM TMZ by MTT assay; type: functional
RG2 [26] = test: Induction of DNA damage in rat RG2 cells assessed as Chk2 phosphorylation at Thr68 at 112.4 uM after 48 hrs in presence of TMZ by Western blot analysis (reference value: 1); type: functional
RG2 [27] = test: Induction of DNA damage in rat RG2 cells assessed as H2A.X phosphorylation at ser139 at 112.4 uM after 48 hrs in presence of TMZ by Western blot analysis (reference value: 1); type: functional
RG2 [28] = test: Synergistic cytotoxicity against rat RG2 cells assessed as synergistic effect index at 134.9 uM after 48 hrs in presence of 412.1 uM TMZ by MTT assay; type: functional
[29] = Synergistic cytotoxicity against rat CTX TNA2 cells assessed as synergistic effect index at 112.4 uM after 48 hrs in presence of 206 uM TMZ by MTT assay; type: cell-based; settings: ctx tna2, 48 h
RG2 [30] = test: Induction of cell cycle arrest in rat RG2 cells assessed as accumulation at G0/G1 phase at 206 uM after 48 hrs by propidium iodide staining based flow cytometric analysis (reference value: 57.81 +/- 1.9%); type: functional
RG2 [31] = test: Induction of cell cycle arrest in rat RG2 cells assessed as CyclinD1 expression at 206 uM after 48 hrs by Western blot analysis (reference value: 1); type: functional
RG2 [32] = test: Induction of apoptosis in rat RG2 cells assessed as increase in chromatin condensation at 206 uM after 48 hrs by TUNEL assay; type: functional, cell-based
DBTRG-05MG [33] = test: Induction of DNA damage in human DBTRG-05MG cells assessed as H2A.X phosphorylation at ser139 residues at 206 uM after 48 hrs by Western blot analysis (reference value: 1); type: functional

## C[C@@H]1CC[C@H]2C(C)(C)[C@H]3C[C@@]12CC[C@@]3(C)O [CEDROL]
[1]
  fold change (FC): 1.2
[2]
  fold change (FC): 2
DBTRG-05MG [3]
  Activity: 32.51%
DBTRG-05MG [4]
  Activity: Active
RG2 [5]
  CI: 0.93
[6]
  Activity_index: 0.58
DBTRG-05MG [7]
  Activity_index: 0.87
RG2 [8]
  Activity_index: 0.83
[9]
  fold change (FC): 0.8
RG2 [10]
  Activity_index: 0.84
DBTRG-05MG [11]
  Activity: Active
[12]
  Activity_index: 0.7
DBTRG-05MG [13]
  fold change (FC): 0.7
[14]
  Activity_index: 0.56
RG2 [15]
  fold change (FC): 0.5
[16]
  fold change (FC): 1.5
RG2 [17]
  Activity: 17.99%
DBTRG-05MG [18]
  fold change (FC): 0.4
RG2 [19]
  Activity: 9.09%
DBTRG-05MG [20]
  CI: 0.7
[21]
  Activity: 1.23
DBTRG-05MG [22]
  Activity: 49.57%
RG2 [23]
  Activity: 35.71%
RG2 [24]
  fold change (FC): 0.5
RG2 [25]
  Activity_index: 0.65
RG2 [26]
  fold change (FC): 1.6
RG2 [27]
  fold change (FC): 1.3
RG2 [28]
  Activity_index: 0.9
[29]
  Activity_index: 0.4

## Cn1nnc2c(C(N)=O)ncn2c1=O [TEMOZOLOMIDE]
RG2 [30]
  Activity: 26.97%
RG2 [31]
  fold change (FC): 1
RG2 [32]
  Activity: Active
DBTRG-05MG [33]
  fold change (FC): 1
